For the assay, the target named is T1, SmGAR (Schistosoma mansoni, UniProt A0A3Q0KNW8).
T1 sequence (A0A3Q0KNW8 5-938): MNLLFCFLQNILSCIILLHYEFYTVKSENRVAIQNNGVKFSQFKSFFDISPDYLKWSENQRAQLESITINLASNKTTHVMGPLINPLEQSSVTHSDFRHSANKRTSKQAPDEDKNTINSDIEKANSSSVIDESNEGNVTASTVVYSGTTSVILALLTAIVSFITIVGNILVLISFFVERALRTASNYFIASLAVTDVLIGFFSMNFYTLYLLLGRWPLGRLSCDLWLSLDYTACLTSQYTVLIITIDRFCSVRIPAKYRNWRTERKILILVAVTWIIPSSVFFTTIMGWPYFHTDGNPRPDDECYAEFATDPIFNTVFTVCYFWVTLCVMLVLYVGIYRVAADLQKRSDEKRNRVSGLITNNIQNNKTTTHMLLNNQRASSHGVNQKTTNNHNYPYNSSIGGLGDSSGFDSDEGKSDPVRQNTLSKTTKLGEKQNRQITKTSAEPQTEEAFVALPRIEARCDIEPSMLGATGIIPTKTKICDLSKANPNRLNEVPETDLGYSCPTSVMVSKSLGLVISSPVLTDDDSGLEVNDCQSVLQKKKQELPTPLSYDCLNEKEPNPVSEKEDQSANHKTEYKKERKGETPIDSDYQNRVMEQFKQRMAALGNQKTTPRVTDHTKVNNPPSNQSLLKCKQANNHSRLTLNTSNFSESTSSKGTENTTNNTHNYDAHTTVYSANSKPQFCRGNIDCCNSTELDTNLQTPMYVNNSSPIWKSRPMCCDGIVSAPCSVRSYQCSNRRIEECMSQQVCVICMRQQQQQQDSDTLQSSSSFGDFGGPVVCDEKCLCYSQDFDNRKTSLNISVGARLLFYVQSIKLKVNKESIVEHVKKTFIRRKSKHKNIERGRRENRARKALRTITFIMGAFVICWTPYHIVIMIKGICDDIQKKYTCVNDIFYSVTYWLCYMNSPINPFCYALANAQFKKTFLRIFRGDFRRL
As to the kind of experiment: yeast HIS3 reporter growth assay, Alamar Blue. Format: cell-based. As to conditions: read-out: % inhibition at 1 mM. (Alamar Blue is a resazurin reagent that responds to reducing activity.)

Inhibition data for 1 compound are collected here from PMC4607267 (Molecular and biochemical parasitology, 2015).

Structures are written as SMILES.

For orientation: inhibition means how much of the control response was suppressed. In the case of `CN1CCN(CC(=O)N2c3ccccc3C(=O)Nc3cccnc32)CC1` [pirenzepine], the inhibition at 1000 µM is under 50%.
